Reference: article PMC9838834, “Improvement of Antialveolar echinococcosis efficacy of novel Albendazole-Bile acids Derivatives with Enhanced Oral Bioavailability” (PLOS Neglected Tropical Diseases, 2023)

Tests used:
[1] = Stability in rat plasma (UHPLC-MS method validation, S4 Table); format: in vitro ADME
Method: A Dionex Ultimate 3000 RSLC system (Thermofisher) combined with an Accucore aQ C18 column (150 mm×2.1 mm, 2.6 μm, Thermo fisher) was used in the sample separation process. The separation speed was set at […] for all gradients. 1 μL of injection volume and a constant temperature of (25 ± 1°C were set for the column. The eluents were A, water with 0.1% formic acid (v/v) and B, methanol; the gradient program was as follows: 0–6 min, 8–40% B; 6–8 min, 40–100% B; 8–10 min, 100% B; 10–11 min, 100–8% B; 11–13 min, 8% B.
Heated electro-spray ionization (HE-SI) was paired with a Q-Orbitrap MS in the MS analysis. The flow rate of auxiliary, sheath and sweep gas was set at 35, 10, and 1 (arbitrary unit), respectively. A full MS-ddMS^2 mode was used to perform the analysis. The damping gas in the C-trap and nitrogen was used to stabilize the spraying. Temperatures of 350°C and 320°C were set and kept for the auxiliary gas heater and capillary. Under negative mode, 3.0 kV was adopted for the spray voltage, 60 V was used for the S-lens RF level, 50 ms was used for the maximum injection time, and 3.0 ^e6 was set as the automatic gain control target. Full MS-ddMS^2 scan ranged from 150.0000 to 800.0000 m/z. Precise molecular weight […] was used for qualitative analysis, the corresponding peak area was used for quantitative analysis, and MS^2 fragments were used for further qualitative analysis.
Plasma samples were thawed at room temperature, and 100 μL was added to an equal volume of mass spectrometry grade methanol, vortexed for 1 min, and centrifuged again at 13000 rpm for 5 min. 100 μL of the supernatant were added to 100 μL of 200 ng/mL mebendazole IS solution, vortexed for 1 min, and centrifuged again at 13000 rpm for 5 min. The resulting sample was injected by UHPLC-HR-ESI-MS with an injection volume of 1 μL. The pharmacokinetic study of SD rats was performed according to the standards recommended by the "Guidelines for the Care and Use of Laboratory Animals" (Animal Laboratory Resources Institute, 1995) and was approved by the Institutional Animal Care and Use Committee of Qinghai University.
Supplementary file pntd.0011031.s004.xlsx: S4 Table The stability for the determination of total alkaloid in rat plasma. (XLSX) Click here for additional data file.

alveolar echinococcosis = system: alveolar echinococcosis; parameters: method as in PMID 18938096; settings: AE patients; cited from earlier work
Hep-G2 cell line = experiment: Cytotoxicity in Hep-G2 cell line; format: cell-based, human; settings: ABZ-BA with different carbon chain lengths (C1, C4 linker), data not shown
Excerpt: Since this part of data will be published in other manuscripts, it is not shown in this manuscript.

[2] = system: secondary hepatic alveolar echinococcosis (E. multilocularis); experiment: In vivo therapeutic efficacy in an in-situ AE animal model (lesion volume); settings: AE model rats
Method: Six-week-old […] weighing 200-250g were purchased from a market (Weitong Lihua Laboratory Animal Technology Co., Ltd, Beijing, China). The rats were injected with protoscolex (PSC) suspension (1000–2000) PSCs/mL×0.1 mL/each using the open-abdominal direct liver puncture method. The modeling quality was confirmed by Mindray’s Resona7 color Doppler ultrasound system. The lesion volume was calculated by the length (X) and width (Y) of its ultrasound transverse section and the width (Z) of its longitudinal section, X·Y·Z. Rats with relatively uniform lesion volumes were selected as model animals for further experiments (Fig 1). All animal-related experiments were approved by the Animal Care and Utilization Committee (IACUC) of Qinghai University. The animals were housed in a room with controlled temperature (25 ± 2°C) with light-cycled (12 h light/dark cycle). Food and water were provided ad libitum.
At the 16th week after establishing an experimental secondary AE in rats, we divided the model rats into three groups. The first is the control group, with six infected rats were received with CMC-Na of 0.9% saline. In the second group, rats were received with 0.2 mL of Albenda suspension. In the third group, rats were received with 0.2 mL of ABZ-BA suspension. The three groups were administered by gavage with the dosage of 25 mg/kg/d, which was calculated according to the equivalent dose convert ratio between humans and animals based on the surface body area of humans. After a 30-day, once-daily oral administration, the liver tissue lesions were obtained and weighed to evaluate the cyst inhibition rate after one month of administration.

protoscolex (PSCs) [3] = experiment: Alkaline phosphatase in supernatant of PSC culture medium; format: cell-based, E. multilocularis; settings: 5 days after treatment, same concentration as ABZ / ABZ-SO
[4] = Determination of equilibrium solubility (HPLC); format: physicochemical; settings: 48 h, pH 7.4
Method: An excess amount of ABZ-BA and ABZ were equilibrated in sodium phosphate buffer, pH 7.4, at 37°C for 48 h. The supernatant was separated from excess solid in solution by ultracentrifugation at 40000 rpm. Subsequently, the supernatant was diluted, and the solution concentration was determined using high-performance liquid chromatography (HPLC) (Shimadzu LC- 20AT, Kyoto, Japan). The chromatographic separation was performed with Diamonsil C18 (4.6×150 mm, 5 μm, Waters, Massachusetts, USA). ABZ-BA and ABZ were detected by ultraviolet (UV) absorbance detection at a wavelength of 240 nm. The mobile phase was methanol /water (70/30 v/v) and the flow rate was 1 mL/min. The injection volume was 20 μL.

protoscolex (PSCs) [5] = experiment: Caspase 3 in supernatant of PSC culture medium; format: cell-based, E. multilocularis; settings: 5 days after treatment
[6] = nominal 1.58 (ABZ-BA) / 1.57 (ABZ) ng/mL
[7] = nominal 25.25 (ABZ-BA) / 25.18 (ABZ) ng/mL
[8] = nominal 101 (ABZ-BA) / 100.78 (ABZ) ng/mL
[9] = after 1 month of oral administration

## CCCSc1ccc2nc(NC(=O)OC)[nH]c2c1 [ABZ, Albendazole]
[1]; [6]
  Measured (mean ± SD), 4℃ for 24 h: 1.53 ± 0.08 ng/mL
  Measured (mean ± SD), Room temperature for 24 h: 1.56 ± 0.13 ng/mL
  Measured (mean ± SD), Three freeze: 1.59 ± 0.15 ng/mL
  Measured (mean ± SD), at -80℃ for 15 days: 1.56 ± 0.07 ng/mL
[1]; [7]
  Measured (mean ± SD), 4℃ for 24 h: 25.65 ± 0.53 ng/mL
  Measured (mean ± SD), Room temperature for 24 h: 24.87 ± 0.34 ng/mL
  Measured (mean ± SD), Three freeze: 25.56 ± 0.56 ng/mL
  Measured (mean ± SD), at -80℃ for 15 days: 25.34 ± 1.18 ng/mL
[1]; [8]
  Measured (mean ± SD), 4℃ for 24 h: 104.63 ± 2.81 ng/mL
  Measured (mean ± SD), Room temperature for 24 h: 98.90 ± 3.53 ng/mL
  Measured (mean ± SD), Three freeze: 106.20 ± 1.36 ng/mL
  Measured (mean ± SD), at -80℃ for 15 days: 108.56 ± 1.18 ng/mL
Alveolar echinococcosis
  clinical improvement after administration: two-thirds of AE patients show moderate improvement

## CCCSc1ccc2[nH]c(NC(=O)NCCCCOC(=O)CCC(C)C3CCC4C5C(O)CC6CC(O)CCC6(C)C5CC(O)C34C)nc2c1 (stereo not shown) [ABZ-BA]
Hep-G2 cell line
  cytotoxicity compared with ABZ: the same cytotoxicity as ABZ
[2]; 25 mg/kg/d by gavage, after 4 weeks of administration, n = 6, ultrasound X·Y·Z
  lesion volume: 0.35±0.18 cm^3
[2]; [9]
  effect of ABZ-BA group relative to Albenda: 2.7 fold
  therapeutic effect: significant therapeutic effect
Protoscolex (PSCs) [3]
  ALP in supernatant of PSC culture medium vs positive control group: no significant difference
[4]
  equilibrium solubility of ABZ-BA relative to ABZ in vitro: 4 fold
  solubility of ABZ-BA relative to ABZ: about 12 times
Protoscolex (PSCs) [5]
  content of caspase 3 in supernatant of PSC culture medium vs positive control group: significantly higher
Protoscolex (PSCs) [5]; 13.45-53.8 μg/mL
  apoptotic effect on PSCs, dependence on concentration: concentration-dependent
